Data taken from article PMC4919555 (EBioMedicine, 2016).
Values after ≈ are worked out from the molar mass of the structure shown. Read-outs that look alike come from different tables or passages of the source.

How the values were obtained:
InhA [1] = target: T1, InhA (Mycobacterium tuberculosis, UniProt P9WGR1); experiment: biochemical
in vivo = details: female, C57BL/6j, mouse; for Vd / clearance / half-life: iv; for Cmax / Tmax: po
[2] = mice
[3] = format: in vitro ADME; details: mouse liver microsomes
InhA [4] = target: T1, InhA; details: steady-state competition experiments
M. tuberculosis H37Rv [5] = experiment: microbe, parasite or virus in culture; format: cell-based; details: Mycobacterium tuberculosis, read-out: Mtb MIC
[6] = system: panel of Gram-positive and Gram-negative organisms; experiment: General antimicrobial activity assay; format: cell-based; details: read-out: Antibacterial panel (MIC)
[7] = format: in vitro ADME; details: human liver microsomes
M. bovis BCG = format: cell-based
physchem = format: physicochemical; details: pH 7.4
HepG2 mammalian cells = format: cell-based; details: human
human FAS = human FAS (Homo sapiens, UniProt P49327); experiment: Selectivity against human FAS; format: biochemical
human FAS, sequence (P49327 whole entry): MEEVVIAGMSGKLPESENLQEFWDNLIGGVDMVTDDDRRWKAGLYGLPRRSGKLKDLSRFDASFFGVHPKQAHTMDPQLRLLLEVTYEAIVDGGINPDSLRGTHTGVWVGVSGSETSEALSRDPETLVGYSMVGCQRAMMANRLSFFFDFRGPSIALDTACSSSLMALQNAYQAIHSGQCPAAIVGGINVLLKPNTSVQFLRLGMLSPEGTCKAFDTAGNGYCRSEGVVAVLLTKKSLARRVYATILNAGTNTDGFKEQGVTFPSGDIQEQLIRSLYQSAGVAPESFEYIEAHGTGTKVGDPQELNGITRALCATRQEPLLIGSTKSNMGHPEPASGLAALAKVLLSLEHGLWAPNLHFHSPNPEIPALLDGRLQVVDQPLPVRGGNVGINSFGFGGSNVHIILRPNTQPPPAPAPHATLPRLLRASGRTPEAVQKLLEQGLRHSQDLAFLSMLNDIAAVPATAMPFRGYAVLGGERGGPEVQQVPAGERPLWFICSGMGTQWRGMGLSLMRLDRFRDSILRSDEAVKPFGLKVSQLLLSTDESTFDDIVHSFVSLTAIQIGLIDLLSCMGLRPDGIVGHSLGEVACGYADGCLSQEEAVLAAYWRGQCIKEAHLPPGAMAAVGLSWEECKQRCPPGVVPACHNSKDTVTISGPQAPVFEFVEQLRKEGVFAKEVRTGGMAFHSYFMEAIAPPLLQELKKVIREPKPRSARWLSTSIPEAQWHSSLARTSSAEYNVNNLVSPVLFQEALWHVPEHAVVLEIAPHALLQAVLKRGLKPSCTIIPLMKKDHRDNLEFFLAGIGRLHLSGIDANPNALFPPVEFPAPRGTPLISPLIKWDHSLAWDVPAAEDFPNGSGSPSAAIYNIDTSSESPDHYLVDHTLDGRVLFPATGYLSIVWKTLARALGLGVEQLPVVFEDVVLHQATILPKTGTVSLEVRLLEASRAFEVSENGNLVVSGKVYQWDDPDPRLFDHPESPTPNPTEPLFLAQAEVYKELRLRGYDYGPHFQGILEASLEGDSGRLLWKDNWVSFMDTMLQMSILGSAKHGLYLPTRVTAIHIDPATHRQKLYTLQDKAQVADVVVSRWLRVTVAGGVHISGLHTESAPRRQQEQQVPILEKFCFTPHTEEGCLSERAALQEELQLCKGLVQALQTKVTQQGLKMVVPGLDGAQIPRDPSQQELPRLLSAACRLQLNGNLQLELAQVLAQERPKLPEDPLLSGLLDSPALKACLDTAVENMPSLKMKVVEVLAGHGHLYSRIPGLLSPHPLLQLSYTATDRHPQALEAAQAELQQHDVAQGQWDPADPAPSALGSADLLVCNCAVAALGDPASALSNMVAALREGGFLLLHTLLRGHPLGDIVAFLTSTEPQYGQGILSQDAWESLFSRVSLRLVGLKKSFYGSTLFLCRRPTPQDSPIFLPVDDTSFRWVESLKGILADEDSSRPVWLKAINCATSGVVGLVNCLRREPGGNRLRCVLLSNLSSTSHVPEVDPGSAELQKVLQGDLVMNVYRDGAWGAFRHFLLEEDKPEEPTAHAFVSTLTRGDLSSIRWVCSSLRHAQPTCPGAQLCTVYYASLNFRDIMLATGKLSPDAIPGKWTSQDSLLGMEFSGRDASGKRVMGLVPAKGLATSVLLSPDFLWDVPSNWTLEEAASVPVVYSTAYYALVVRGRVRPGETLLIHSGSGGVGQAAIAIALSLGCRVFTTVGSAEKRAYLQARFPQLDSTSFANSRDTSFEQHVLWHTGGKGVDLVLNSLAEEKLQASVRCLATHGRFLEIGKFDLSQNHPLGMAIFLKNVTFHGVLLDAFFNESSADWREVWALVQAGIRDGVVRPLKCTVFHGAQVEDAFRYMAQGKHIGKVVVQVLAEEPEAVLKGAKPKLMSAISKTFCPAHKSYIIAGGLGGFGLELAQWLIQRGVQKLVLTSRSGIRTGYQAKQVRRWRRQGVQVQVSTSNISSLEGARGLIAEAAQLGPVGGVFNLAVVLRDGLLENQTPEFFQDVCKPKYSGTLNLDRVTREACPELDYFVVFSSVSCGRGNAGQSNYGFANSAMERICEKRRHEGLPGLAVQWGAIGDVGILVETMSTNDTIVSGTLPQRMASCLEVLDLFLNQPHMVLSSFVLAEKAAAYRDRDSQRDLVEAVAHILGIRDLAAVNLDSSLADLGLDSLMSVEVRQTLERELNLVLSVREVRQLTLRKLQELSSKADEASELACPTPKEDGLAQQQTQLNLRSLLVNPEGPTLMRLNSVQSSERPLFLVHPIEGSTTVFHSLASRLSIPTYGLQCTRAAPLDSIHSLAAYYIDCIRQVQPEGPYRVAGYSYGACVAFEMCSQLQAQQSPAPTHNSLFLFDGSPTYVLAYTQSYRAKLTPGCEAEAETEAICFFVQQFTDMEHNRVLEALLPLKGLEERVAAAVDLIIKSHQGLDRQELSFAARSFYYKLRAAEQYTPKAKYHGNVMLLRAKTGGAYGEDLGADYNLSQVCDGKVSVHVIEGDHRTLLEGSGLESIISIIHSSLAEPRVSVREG

GFP expressing MTB = experiment: Single-cell time-lapse imaging in microfluidic device; format: cell-based, M. tuberculosis
[8] = genetic toxicity
M. tuberculosis H37Rv [9] = experiment: microbe, parasite or virus in culture; format: cell-based; details: Mycobacterium tuberculosis, read-out: Mtb intracell MIC
[10] = format: in vivo, C57BL/6 mice; details: mice
CYP 3A4 = CYP 3A4 (Homo sapiens, UniProt P08684); experiment: biochemical
CYP 3A4, sequence (P08684 whole entry): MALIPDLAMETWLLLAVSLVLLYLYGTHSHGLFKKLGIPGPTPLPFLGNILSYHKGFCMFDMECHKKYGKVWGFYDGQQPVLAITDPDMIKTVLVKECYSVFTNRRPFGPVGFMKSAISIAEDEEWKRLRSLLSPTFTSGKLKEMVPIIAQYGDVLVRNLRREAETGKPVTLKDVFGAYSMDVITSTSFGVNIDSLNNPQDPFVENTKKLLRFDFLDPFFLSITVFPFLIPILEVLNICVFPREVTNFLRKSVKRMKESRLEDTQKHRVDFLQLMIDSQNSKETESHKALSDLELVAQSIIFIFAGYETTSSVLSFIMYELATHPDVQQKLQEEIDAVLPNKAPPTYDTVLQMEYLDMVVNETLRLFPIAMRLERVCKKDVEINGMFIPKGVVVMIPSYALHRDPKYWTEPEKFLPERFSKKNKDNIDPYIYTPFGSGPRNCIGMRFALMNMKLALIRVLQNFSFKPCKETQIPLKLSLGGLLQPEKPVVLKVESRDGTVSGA

M. tuberculosis H37Rv [11] = details: acute model
Memb.; Nucleus; Mitoch. = format: cell-based
hERG potassium channel = hERG potassium channel (Homo sapiens, UniProt Q12809); experiment: cell-based
hERG potassium channel, sequence (Q12809 whole entry): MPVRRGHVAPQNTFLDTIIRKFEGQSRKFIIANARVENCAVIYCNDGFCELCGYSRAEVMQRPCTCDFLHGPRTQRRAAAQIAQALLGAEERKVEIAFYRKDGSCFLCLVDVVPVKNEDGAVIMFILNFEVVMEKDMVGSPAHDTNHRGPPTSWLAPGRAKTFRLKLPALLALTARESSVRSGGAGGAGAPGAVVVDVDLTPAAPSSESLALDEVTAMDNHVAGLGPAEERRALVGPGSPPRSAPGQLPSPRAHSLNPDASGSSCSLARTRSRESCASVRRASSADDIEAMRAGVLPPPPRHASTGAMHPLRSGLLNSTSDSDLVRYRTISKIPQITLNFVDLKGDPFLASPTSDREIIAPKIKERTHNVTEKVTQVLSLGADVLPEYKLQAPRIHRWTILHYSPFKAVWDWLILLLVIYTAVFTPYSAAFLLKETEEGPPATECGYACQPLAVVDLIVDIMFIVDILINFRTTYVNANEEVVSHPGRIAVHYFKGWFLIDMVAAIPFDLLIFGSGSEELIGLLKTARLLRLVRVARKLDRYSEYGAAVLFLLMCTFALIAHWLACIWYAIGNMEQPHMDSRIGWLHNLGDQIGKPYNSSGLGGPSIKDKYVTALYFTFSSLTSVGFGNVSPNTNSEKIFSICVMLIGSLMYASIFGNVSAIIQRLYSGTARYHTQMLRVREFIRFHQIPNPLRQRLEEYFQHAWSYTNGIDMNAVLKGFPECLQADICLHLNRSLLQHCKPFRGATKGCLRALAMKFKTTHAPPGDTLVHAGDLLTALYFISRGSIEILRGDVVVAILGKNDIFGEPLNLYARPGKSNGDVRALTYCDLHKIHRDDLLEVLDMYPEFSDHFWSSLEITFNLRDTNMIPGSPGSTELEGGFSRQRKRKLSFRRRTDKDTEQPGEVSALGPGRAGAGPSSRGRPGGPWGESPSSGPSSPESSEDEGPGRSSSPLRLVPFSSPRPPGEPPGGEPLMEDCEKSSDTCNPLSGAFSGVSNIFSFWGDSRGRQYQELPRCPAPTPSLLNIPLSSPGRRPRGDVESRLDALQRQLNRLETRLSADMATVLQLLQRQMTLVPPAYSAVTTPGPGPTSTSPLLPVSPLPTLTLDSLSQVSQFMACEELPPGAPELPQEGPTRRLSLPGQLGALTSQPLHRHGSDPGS

M. tuberculosis = details: chronic model, 25 mg/kg, 2-month treatment
[12] = 5 μM, propidium iodide end point

T1 sequence (P9WGR1 whole entry, looked up): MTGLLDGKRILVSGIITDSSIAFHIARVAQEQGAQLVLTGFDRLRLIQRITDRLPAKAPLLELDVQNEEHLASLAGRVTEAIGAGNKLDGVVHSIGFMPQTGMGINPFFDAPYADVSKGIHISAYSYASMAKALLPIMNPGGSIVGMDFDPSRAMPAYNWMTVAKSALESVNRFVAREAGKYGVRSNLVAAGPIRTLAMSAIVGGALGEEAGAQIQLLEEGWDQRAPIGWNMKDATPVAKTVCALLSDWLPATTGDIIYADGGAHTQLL

SMILES: Cc1ccn(C(C)c2nnc(Nc3ccn(Cc4c(F)cccc4Cl)n3)s2)n1 (stereo not shown) [GSK613, N-(1-(2-chloro-6-fluorobenzyl)-1H-pyrazol-3-yl)-5-(1-(3-methyl-1H-pyrazol-1-yl)ethyl)-1,3,4-thiadiazol-2-amine]
- IC50 (InhA [1]): 0.007 µM
- Vd (in vivo; 0.5 mg/kg): 2.5 L/kg
- clearance (in vivo; 0.5 mg/kg): 157 mL/min/kg
- half-life (in vivo; 0.5 mg/kg): 18 min
- Cmax (in vivo; 50 mg/kg): 94.3 ng/mL
- Tmax (in vivo; 50 mg/kg): 45 min
- DNAUC (dose normalized exposure) ([2]; Table 1 hits): 5 ng·h/ml per mg/kg
- In vitro Cli mouse [3]: 11.9 mL/min/g
- Mode of inhibition versus NADH (InhA [4]): uncompetitive with NADH
- Mode of inhibition versus fatty acid substrate (InhA [4]): competes with the fatty acid substrate
- MIC (M. tuberculosis H37Rv [5]): ≤ 1 µM
- MIC [6]: ≥ 64 µg/mL
- In vitro Cli human [7]: 2.9 mL/min/g
- Shift in MIC in strains overexpressing the target (M. bovis BCG): ≥ 4 fold
- solubility (physchem): 10 µM (≈ 4.18 µg/mL)
- HepG2 cytotoxicity Tox 50 (HepG2 mammalian cells): > 100 µM
- Activity against human FAS (human FAS): inactive

SMILES: Cc1csc([C@](C)(O)c2nnc(Nc3ccn(Cc4csc(C)n4)n3)s2)n1 [GSK693, (S)-1-(4-methylthiazol-2-yl)-1-(5-((1-((2-methylthiazol-4-yl)methyl)-1H-pyrazol-3-yl)amino)-1,3,4-thiadiazol-2-yl)ethanol]
- IC50 (InhA [1]): 0.007 µM
- Total fraction of cells undergoing lysis (GFP expressing MTB; 5 μM GSK693 for 10 days, N = 32 microcolonies): 53 ± 20%
- Regrowth after washout of the drug (GFP expressing MTB; 5 μM for 10 days, washout 7 days): None of the intact bacteria exhibited regrowth
- Intact cells PI-positive after exposure (GFP expressing MTB; [12]): About 22%
- Intact cells still able to exclude PI (GFP expressing MTB; [12]): 78%
- Vd (in vivo; 4 mg/kg): 2.58 L/kg
- clearance (in vivo; 4 mg/kg): 83 mL/min/kg
- half-life (in vivo; 4 mg/kg): 56.4 min
- Cmax (in vivo; 100 mg/kg): 37300 ng/mL
- Tmax (in vivo; 100 mg/kg): 25.2 min
- DNAUC ([2]; Table 3 lead): 935.8 ng·h/ml per mg/kg
- Ames test [8]: Negative
- MIC (M. tuberculosis H37Rv [9]): 0.2 µM (≈ 0.0839 µg/mL)
- In vitro Cli mouse [3]: 2.1 mL/min/g
- Maximal no lethal dose (MNLD) [10]: higher than 1000 mg/kg
- MIC (M. tuberculosis H37Rv [5]): 0.2 µM (≈ 0.0839 µg/mL)
- In vitro Cli human [7]: 0.2 mL/min/g
- IC50 (CYP 3A4; CYP 3A4 IC50 VG, VG substrate): 25.1 µM
- IC50 (CYP 3A4; CYP 3A4 IC50 VR, VR substrate): > 50.1 µM
- solubility (physchem): 413 µM (≈ 173 µg/mL)
- HepG2 cytotoxicity Tox 50 (HepG2 mammalian cells): > 50 µM
- Bacterial load reduction (M. tuberculosis H37Rv [11]; 100 mg/kg oral): 4 log10 colony forming units (CFU) per lung
- Clearance of bacilli (Log CFU) (M. tuberculosis H37Rv [11]; oral 30, 100 and 300 mg/kg, P < 0.001): significant clearance of bacilli compared with the controls
- Cell Health (Memb.; Nucleus; Mitoch. ) (Memb.; Nucleus; Mitoch.): > 199.5 µM
- IC50 (hERG potassium channel): > 50 µM

SMILES: NNC(=O)c1ccncc1 [INH, isoniazid]
- Total fraction of cells undergoing lysis (GFP expressing MTB; INH 0.5 µg/ml, N = 41 microcolonies): 42 ± 15%
- Clearance of bacilli (Log CFU) (M. tuberculosis; P < 0.001): significant clearance of bacilli compared with the controls
- Clearance of bacilli (Log CFU) (M. tuberculosis; P < 0.001, listed as isoniazid): clear efficacy

SMILES: COc1c(N2C[C@@H]3CCCN[C@@H]3C2)c(F)cc2c(=O)c(C(=O)O)cn(C3CC3)c12 [moxifloxacin, reference compound]
- Bacterial load reduction (M. tuberculosis H37Rv [11]; 30 mg/kg): 4 log10 colony forming units (CFU) per lung
